Results from ChEMBL document CHEMBL1944509, “Methyl-monofluorination of ibuprofen selectively increases its inhibitory activity toward cyclooxygenase-1 leading to enhanced analgesic activity and reduced gastric damage in vivo” (Bioorg Med Chem Lett, 2011).
Activity calls are given as the source filed them. The calls are words filed in the database; no cut-off is given here.

Experiments:
[1] = target: T1, Prostaglandin G/H synthase 2 (Homo sapiens) (UniProt P35354); assay: Inhibition of human recombinant COX2 up to 1 mM by EIA
T1 sequence (whole entry): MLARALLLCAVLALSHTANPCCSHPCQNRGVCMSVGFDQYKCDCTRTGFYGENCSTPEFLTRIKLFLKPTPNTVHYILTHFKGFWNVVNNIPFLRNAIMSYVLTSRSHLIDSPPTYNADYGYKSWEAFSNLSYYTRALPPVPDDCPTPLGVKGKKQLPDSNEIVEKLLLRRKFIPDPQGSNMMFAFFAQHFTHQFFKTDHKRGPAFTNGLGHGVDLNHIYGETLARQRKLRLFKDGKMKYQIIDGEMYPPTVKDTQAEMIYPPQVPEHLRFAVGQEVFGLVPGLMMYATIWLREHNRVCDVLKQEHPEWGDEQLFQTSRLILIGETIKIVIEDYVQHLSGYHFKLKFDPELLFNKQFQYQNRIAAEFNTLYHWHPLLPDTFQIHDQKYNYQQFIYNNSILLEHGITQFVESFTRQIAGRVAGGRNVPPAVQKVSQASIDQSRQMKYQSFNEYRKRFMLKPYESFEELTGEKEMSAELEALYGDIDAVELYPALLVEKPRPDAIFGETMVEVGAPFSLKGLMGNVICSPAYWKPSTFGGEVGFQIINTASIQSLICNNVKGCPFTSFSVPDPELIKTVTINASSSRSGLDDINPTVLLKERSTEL

[2] = target: T2, Prostaglandin G/H synthase 1 (Ovis aries) (UniProt P05979); assay: Inhibition of ovine COX1 up to 1 mM by EIA
T2 sequence (whole entry): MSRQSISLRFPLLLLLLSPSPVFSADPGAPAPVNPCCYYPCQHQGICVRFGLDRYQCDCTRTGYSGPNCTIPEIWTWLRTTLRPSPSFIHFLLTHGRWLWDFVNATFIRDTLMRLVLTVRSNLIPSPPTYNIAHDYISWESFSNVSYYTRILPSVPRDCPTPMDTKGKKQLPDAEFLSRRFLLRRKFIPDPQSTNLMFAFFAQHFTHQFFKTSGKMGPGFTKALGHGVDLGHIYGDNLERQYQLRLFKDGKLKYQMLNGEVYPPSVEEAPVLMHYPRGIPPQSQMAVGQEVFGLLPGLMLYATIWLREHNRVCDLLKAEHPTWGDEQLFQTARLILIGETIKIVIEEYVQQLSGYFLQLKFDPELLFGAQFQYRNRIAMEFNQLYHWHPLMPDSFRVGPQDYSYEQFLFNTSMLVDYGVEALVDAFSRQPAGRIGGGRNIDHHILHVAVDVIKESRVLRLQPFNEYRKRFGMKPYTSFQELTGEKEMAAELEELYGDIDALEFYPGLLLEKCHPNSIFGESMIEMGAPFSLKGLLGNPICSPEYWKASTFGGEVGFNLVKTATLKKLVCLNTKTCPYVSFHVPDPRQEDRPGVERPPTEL

`CC(C)Cc1ccc([C@@H](CF)C(=O)O)cc1` was tested, and the inhibition [1] was “inactive” and the inhibition [2] was “inactive”.
